Data from patent US20220283165A1, “Methods of Enhancing Immunogenicity of Cancers” (The Board of Trustees of the Leland Stanford Junior …, priority 2019, published 2022).

How the values were obtained:
[1] = test system: MYC-overexpressing T-cell acute lymphoblastic leukemia, mixed-lineage leukemia, neuroblastomas, small cell lung cancers; settings: cited from earlier work
ST6GALNAC4 = experiment: Western blot for ST6GALNAC4 in PEER cells after MYC inhibition; type: cell-based, human; settings: 100 μM 10058-F4 for 48 hours
Procedure: (§1) ST6GALNAC4 or pharmacologic MYC inhibition for 48 hours by incubation with 100 μM 10058-F4 (n(control)=8, n(KO)=4, n(inhibitor)=6, two-tailed Mann-Whitney U test). Data presented as mean ±s.d. Panel C: Representative Western blot for ST6GALNAC4 in PEER cells following MYC inhibition with 100 μM 10058-F4 for 48 hours. Data representative of two independent experiments. Panel D: Workflow to collect primary T-ALL from patients, treat with a MYC inhibitor (10058-F4), and quantify Siglec-7 ligands. Panel E: Siglec-7 ligands on patient T-ALL liquid biopsies treated with the indicated concentration of 10058-F4 for 48 hours. Data represent three donors. Panel F: Correlation of ST6GALNAC4 and MYC mRNA (RNA-seq) gene expression across all hematopoietic tumor samples (n=106) in the CCLE with MYC expression>3. Correlation determined by least squares regression. Panel G: Survival Z-score heatmap for each sialyltransferase across each hematopoietic tumor within the PRECOG database. […] Panel H: Siglec-7 ligand display by KARPAS-422 DLBCL cells following treatment with 10058-F4 for 48 hours (n=3 per group, two-tailed Student's t-test). Data presented as mean±s.d. Panel I: Survival stratified by median MYC and ST6GALNAC4 expression in a cohort of DLBCL patients (GSE4475). HR, hazard ratio from Cox Proportional Hazards model. […] Monocyte prevalence was calculated as a fraction of all lymphocytes. […]

[2] = test system: Siglec-7 ligands on PEER cells; experiment: Siglec-7 ligand display (Siglec-7-Fc staining, flow cytometry) on PEER cells after MYC or CDK7/9 inhibition; type: cell-based, human; settings: 48 hours, 10058-F4 at 100 μM
Procedure: as §1

Myc-AURKA complex = Myc-AURKA complex (Homo sapiens, UniProt O14965); settings: MYCN-amplified neuroblastomas; cited from earlier work
[3] = test system: hematopoietic cancers and pancreatic ductal adenocarcinoma (PDAC) exhibiting C-MYC overexpression; settings: in vitro and in vivo; cited from earlier work
[4] = test system: MYCN-amplified neuroblastoma; settings: xenograft model; cited from earlier work
[5] = test system: Siglec-7 ligands on primary human T-ALL cells; experiment: Siglec-7 ligands on patient T-ALL liquid biopsies treated with MYC inhibitor; type: cell-based; settings: FACS-sorted primary T-ALL cells, 48 hours; two of three patients had Siglec-7-Fc binding
Procedure: as §1, with “mean±s.d.” for “mean±s.d. Panel I: Survival stratified by median MYC and ST6GALNAC4 expression in a cohort of DLBCL patients (GSE4475). HR, hazard ratio from Cox Proportional Hazards model.”
Assessed next was whether T-ALL liquid biopsies display Siglec-7 ligands susceptible to MYC regulation. […]

[6] = test system: Siglec-7 ligands on KARPAS-422 DLBCL cells; experiment: Siglec-7 ligand display by KARPAS-422 DLBCL cells after MYC inhibition; type: cell-based, human; settings: 48 hours
Procedure: as §1

Myc-Max complex = molecular target: T1, Myc-Max complex (Homo sapiens, UniProt P01106); settings: HL60 cells; cited from earlier work
T1 construct: host or cells: HL60 cells (for 10058-F4 only)

c-Myc = settings: P53-mutant human hepatocellular carcinoma cells; cited from earlier work

Myc-AURKA complex, sequence (O14965 whole entry, one chain of several): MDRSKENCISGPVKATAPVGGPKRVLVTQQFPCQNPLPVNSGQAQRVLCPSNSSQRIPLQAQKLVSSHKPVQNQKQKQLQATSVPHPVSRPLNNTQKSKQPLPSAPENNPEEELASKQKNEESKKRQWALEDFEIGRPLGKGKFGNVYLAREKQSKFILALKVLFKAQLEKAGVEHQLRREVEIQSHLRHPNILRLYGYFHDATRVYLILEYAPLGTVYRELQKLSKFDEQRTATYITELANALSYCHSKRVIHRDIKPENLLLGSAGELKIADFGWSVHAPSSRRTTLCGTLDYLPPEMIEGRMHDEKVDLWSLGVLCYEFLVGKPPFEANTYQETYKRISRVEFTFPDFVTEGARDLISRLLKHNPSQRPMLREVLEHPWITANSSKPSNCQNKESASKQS
T1 sequence (P01106 whole entry, one chain of several): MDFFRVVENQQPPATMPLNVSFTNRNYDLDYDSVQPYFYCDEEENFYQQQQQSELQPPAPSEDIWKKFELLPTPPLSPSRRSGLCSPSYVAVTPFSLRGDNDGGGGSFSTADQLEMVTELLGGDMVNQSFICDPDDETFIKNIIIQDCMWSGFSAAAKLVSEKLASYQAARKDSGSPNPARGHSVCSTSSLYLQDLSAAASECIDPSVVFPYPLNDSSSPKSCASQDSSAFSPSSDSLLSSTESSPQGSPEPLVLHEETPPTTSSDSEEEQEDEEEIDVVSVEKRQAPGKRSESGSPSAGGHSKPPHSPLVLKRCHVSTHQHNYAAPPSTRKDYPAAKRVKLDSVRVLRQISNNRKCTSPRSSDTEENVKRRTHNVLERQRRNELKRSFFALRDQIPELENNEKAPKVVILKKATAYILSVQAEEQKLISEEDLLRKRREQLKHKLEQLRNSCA

CN(C)C/C=C/C(=O)Nc1ccc(C(=O)Nc2cccc(Nc3ncc(Cl)c(-c4c[nH]c5ccccc45)n3)c2)cc1 [THZ1]
anti-tumor effects [1]: potent anti-tumor effects
ST6GALNAC4 protein expression (ST6GALNAC4): diminished ST6GALNAC4 protein expression
Siglec-7-Fc binding (Siglec-7 ligands) [2]: reduced Siglec-7-Fc binding

O=C(O)c1ccc(Nc2ncc3c(n2)-c2ccc(Cl)cc2C(c2c(F)cccc2F)=NC3)cc1 [MLN8054]
N-Myc degradation and tumor regression (Myc-AURKA complex): N-Myc degradation and tumor regression

Cc1sc2c(c1C)C(c1ccc(Cl)cc1)=N[C@@H](CC(=O)OC(C)(C)C)c1nnc(C)n1-2 [JQ1]
anti-cancer effects [3]: potent anti-cancer effects both in vitro and in vivo

CC(=O)c1cc([N+](=O)[O-])c(Sc2ccc(F)cc2F)s1 [P22077]
growth of MYCN-amplified neuroblastoma [4]: markedly suppressed growth

CCc1ccc(/C=C2/SC(=S)NC2=O)cc1 [10058-F4]
Siglec-7 ligand display [5]: reduced Siglec-7 ligand display
ST6GALNAC4 protein expression (ST6GALNAC4): diminished ST6GALNAC4 protein expression
Siglec-7-Fc binding (Siglec-7 ligands) [2]: reduced Siglec-7-Fc binding
reduction in Siglec-7 ligand abundance [6]: 70%
disruption of the Myc-Max complex (Myc-Max complex): capable of disrupting the Myc-Max complex

COc1cc(Nc2ncc3c(n2)-c2ccc(Cl)cc2C(c2c(F)cccc2OC)=NC3)ccc1C(=O)O [MLN8237]
N-Myc degradation and tumor regression (Myc-AURKA complex): N-Myc degradation and tumor regression
c-Myc degradation (c-Myc): induced c-Myc degradation
